Results published in patent US7459441B2, “Remedies for dry eye and diseases associated with dry eye” (Senju Pharmaceutical Co., Ltd., priority 2001, dated 2008).
Where no end group is shown, it is not given here.

How the values were obtained:
isolated lacrimal gland = test: Promotion of protein secretion from isolated lacrimal gland; parameters: species or system rabbit; conditions: 10^-4 M, treating time 0 to 40 minutes, n=5, Dunnett's test (FIG. 1)
Protocol: An isolated lacimal gland of a rabbit was treated with VIP, or Peptide 5 or 15, and the pharmacological effect of these peptides on increase in an amount of secreted protein was studied.
a) Purified water was added to sodium chloride (137.92 g), potassium chloride (7.01 g), calcium chloride-dihydrate (3.53 g) and magnesium chloride.hexahydrate (1.2 g) and the mixture was made up to a total volume of 1000 mL (Solution 1). Separately, purified water was added to potassium dihydrogen phosphate (8.17 g) and the mixture was made up to a total volume of 500 mL (Solution 2). Solution 1 (50 mL) and Solution 2 (10 mL) were added to 900 mL of purified water, 2.07 g of glucose and 2.1 g of […] were dissolved therein, a total amount was adjusted to 1000 mL (pH about 7.4) to obtain an incubation medium. The incubation medium was bubbled with mixed gas containing 95% oxygen and 5% carbon dioxide.
b) VIP, Peptide 5 or Peptide 15 was dissolved in the incubation medium at a concentration of 10^−4 M to obtain a test solution. […]
a) The piece specimen in the steady state was used, the incubation medium was exchanged with 0.5 mL of a fresh incubation medium, followed by incubation at 37° C. for 20 minutes. This incubation medium was collected, a protein staining reagent (DC Protein assay reagent, Bio Rad) was added thereto, and an amount of protein was measured and expressed as an amount of secreted protein per mg of wet weight. […]
b) The incubation medium of the piece specimen after incubation in a) was exchanged with 0.5 mL of a test solution, and the solution was exchanged and collected at 20 minutes intervals totally five times. A protein staining reagent was added to the collected solution, and an amount of protein was measured. For a piece specimen in a control group, the incubation medium was exchanged similarly, and an amount of protein was measured.

[1] = system: eyes of a Japanese white rabbit; test: Lacrimal secretion promotion activity of eye drops (1), Schirmer test; format: in vivo; conditions: for Amount of lacrimal secretion (Schirmer's value), After administration: 10 minutes after single 50 μL application; for Amount of lacrimal secretion (Schirmer's value), After administration / amount of lacrimal secretion after vs before application (paired t test): Peptide 5 0.1 w/v %, Peptide 15 2.0 w/v %; for Amount of lacrimal secretion (Schirmer's value), After administration / Amount of lacrimal secretion (Schirmer's value), Before administration: n = 6, mean ± standard error; for Amount of lacrimal secretion (Schirmer's value), Before administration: baseline before single 50 μL application to eyes; for amount of lacrimal secretion after vs before application (paired t test): single application to eyes
Protocol: Peptide 5 or 15 was applied to eyes of a rabbit, and an amount of secreted tears was measured, whereby, the pharmacological effect of these peptides on increase in an amount of lacrimal secretion was studied.
Purified water was added to sodium chloride (0.9 g) and sodium dihydrogen phosphate.dihydrate (0.1 g) to make up to a total volume of 100 mL. Further, an appropriate amount of aqueous sodium hydroxide solution was added so as to adjust pH to 7.0 to obtain a vehicle. Peptide 5 was dissolved in the vehicle at a concentration of 0.1 w/v %, and Peptide 15 was dissolved in the vehicle at a concentration of 2.0 w/v %, to prepare test solutions.
Measurement of an amount of tears was performed by a Schirmer test. To eyes of a Japanese white rabbit, 50 μL of a test solution was applied once, and amounts of lacrimal secretion before and 10 minutes after the application to eyes were measured. Five minutes before measurement of an amount of tears, 10 μL of 0.4 w/v % oxybuprocaine hydrochloride (Anelocal™ eye drops, Senju Pharmaceutical Co., Ltd.) was dropped to topically anesthetize. After tears in palpebra interior conjunctival sac were wiped out using a filter paper, and an amount of lacrimal secretion for 1 minute was measured using a Schirmer test paper (Showa Yakuhin Kako Co., Ltd.).

[2] = Trypsin digestion test in the presence of chondroitin sulfate; format: in vitro ADME; conditions: 0.5 mU trypsin, pH 7.5, 37° C., 180 minutes, read-out: remaining rate (undegraded peptide by HPLC)
Protocol: The effect of highly basified Peptide 5 on digestion with trypsin was studied in the presence of chondroitin sulfate.
To 100 μL of a solution of VIP and Peptide 5 (1 mg/mL) was added 400 μL of a solution of chondroitin sulfate (pH 7.5, 100 μg/mL) in a 0.2 M Tris-HCl buffer (pH 7.5). To 100 μL of this solution was added 0.5 mU of trypsin and the mixture was incubated at 37° C. for 180 minutes. Then, an amount of an undegraded peptide was measured by HPLC.

[3] = Digestion test with bronchoalveolar lavage fluid (BALF); format: in vitro ADME; conditions: rat BALF, 90 minutes; for remaining at 1.5 h, 0.1 mg/mL: male, SD, bronchoalveolar lavage fluid (BALF), pH 7.4, 37° C., read-out: remaining rate (undegraded peptide by HPLC)
Protocol: The effect of highly basified Peptide 5 on digestion with bronchoalveolar lavage fluid was studied.
VIP and Peptide 5 were dissolved (1.1 mg/mL) in a 0.2% Tris-HCl buffer (pH 7.4), and bronchoalveolar lavage fluid (BALF) was added thereto. BALF was obtained by pouring 5 mL of a physiological saline into a trachea of a 8 to 9 week old normal SD male rat (about 350 g) under anesthesia, and recovering the saline, and repeating this procedure totally three times. To 0.5 mL of BALF was added 0.05 mL of a sample solution and the mixture was reacted at 37° C. for 90 minutes, and thereafter an amount of undegraded peptide was measured by HPLC.

[4] = system: eyes of a Japanese white rabbit; test: Lacrimal secretion promotion activity of eye drops (2), Schirmer test with time; format: in vivo; conditions: for AUC0-120 min, accumulated value of increment of amount of lacrimal secretion after application / increment of amount of lacrimal secretion vs control group / AUC value compared with control group (significance): 0.1 w/v %; for AUC0-120 min, accumulated value of increment of amount of lacrimal secretion after application: 50 μL once to eyes, n = 8, average ± standard error; for increment of amount of lacrimal secretion vs control group: 10 minutes after the administration, n=8 (FIG. 2); for AUC value compared with control group (significance): 120 minutes after the administration, Dunnett-type multiple comparison test
Protocol: In the same manner as that of Test Example 4, Peptide 5 was applied, and an amount of lacrimal secretion was measured. In this test, an amount of lacrimal secretion was measured with time, and the effect was compared with that of VIP.
Preparation of a solution was performed in the same manner as that of Test Example 4, and VIP and Peptide 5 were dissolved in the vehicle at a concentration of 0.1 w/v %, to prepare a test solution.
[…] Measurement of an amount of lacrimal secretion was performed in the same manner as that of Test Example 4.

Peptide 15: VIP derivative of formula (I): X1 Lys, X2 Leu, X3 Lys, X4 Lys, X5 chemical bond, X6 -NH2 (HSDAVFTDNYTRLRKQLAVKKYL-NH2)
rate of protein secretion from isolated lacrimal gland vs control group (isolated lacrimal gland): significantly increased
Amount of lacrimal secretion (Schirmer's value), After administration [1]: 7.75 ± 2.16 mm/min
Amount of lacrimal secretion (Schirmer's value), Before administration [1]: 3.25 ± 1.20 mm/min
amount of lacrimal secretion after vs before application (paired t test) [1]: tendency of increase

CC[C@H](C)[C@H](NC(=O)[C@H](CO)NC(=O)[C@H](CC(N)=O)NC(=O)[C@H](CC(C)C)NC(=O)[C@H](Cc1ccc(O)cc1)NC(=O)[C@H](CCCCN)NC(=O)[C@H](CCCCN)NC(=O)[C@@H](NC(=O)[C@H](C)NC(=O)[C@H](CCSC)NC(=O)[C@H](CCC(N)=O)NC(=O)[C@H](CCCCN)NC(=O)[C@H](CCCNC(=N)N)NC(=O)[C@H](CC(C)C)NC(=O)[C@H](CCCNC(=N)N)NC(=O)[C@@H](NC(=O)[C@H](Cc1ccc(O)cc1)NC(=O)[C@H](CC(N)=O)NC(=O)[C@H](CC(=O)O)NC(=O)[C@@H](NC(=O)[C@H](Cc1ccccc1)NC(=O)[C@@H](NC(=O)[C@H](C)NC(=O)[C@H](CC(=O)O)NC(=O)[C@H](CO)NC(=O)[C@@H](N)Cc1c[nH]cn1)C(C)C)[C@@H](C)O)[C@@H](C)O)C(C)C)C(=O)N[C@@H](CC(C)C)C(=O)N[C@@H](CC(N)=O)C(N)=O [VIP, Vasoactive Intestinal Peptide, reference compound]
remaining at 3 h, 0.2 mg/mL [2]: 75%
remaining at 1.5 h, 0.1 mg/mL [3]: 45.5%
rate of protein secretion from isolated lacrimal gland vs control group (isolated lacrimal gland): significantly increased
AUC0-120 min, accumulated value of increment of amount of lacrimal secretion after application [4]: 215.0 ± 98.2 ΔSchirmer's value × min.
increment of amount of lacrimal secretion vs control group [4]: significantly increased
AUC value compared with control group (significance) [4]: a significant difference is not recognized

HSDAVFTDNYTRLRRQLAVRRYLNSILNGRR-NH2 [Peptide 5]
remaining at 3 h, 0.2 mg/mL [2]: 89%
remaining at 1.5 h, 0.1 mg/mL [3]: 80%
remaining rate as compared with VIP [3]: about 1.8 fold
rate of protein secretion from isolated lacrimal gland vs control group (isolated lacrimal gland): significantly increased
Amount of lacrimal secretion (Schirmer's value), After administration [1]: 8.92 ± 0.45 mm/min
Amount of lacrimal secretion (Schirmer's value), Before administration [1]: 2.00 ± 0.62 mm/min
amount of lacrimal secretion after vs before application (paired t test) [1]: significantly increased
AUC0-120 min, accumulated value of increment of amount of lacrimal secretion after application [4]: 359.2 ± 85.0 ΔSchirmer's value × min.
increment of amount of lacrimal secretion vs control group [4]: significantly increased
AUC value compared with control group (significance) [4]: significantly higher value
duration of lacrimal secretion promoting activity compared with VIP ([4]; application to eyes): longer-lasting
